PMC8151276, “An Integrated Approach toward NanoBRET Tracers for Analysis of GPCR Ligand Engagement” (Molecules, 2021)

Biological target: T1, MC5R (Homo sapiens, UniProt P33032)
T1 construct: purchased Promega (in-house HiBiT-GPCR construct library, NanoBRET)
Test: NanoBRET screen HiBiT-MC5R in HEK293
Assay type: binding
Method: Each tracer candidate was screened across the entire library of HiBiT-GPCR constructs using NanoBRET as the detection modality. As depicted in Figure 4A, the specificity of interactions was evaluated through decrease in BRET due to competitive displacement of a bound tracer by excess parental compound. Each tracer was analyzed for binding to each HiBiT-GPCR fusion in the absence and in the presence of competing parental compound. Briefly, HEK293 cells were transfected with HiBiT-GPCR constructs diluted into promoterless DNA to reduce expression and maximize translocation to the cell surface. Each tracer candidate was then screened at concentrations of 1 μM and 0.1 μM across cells expressing these fusions. Cells were treated for 1.5 h with tracer either alone or in the presence of 20 μM competing parental compound (i.e., control). BRET was measured upon addition of purified LgBiT and subsequent complementation with HiBiT genetically fused to a GPCR. The specificity of interactions was assessed through a decrease in BRET signal due to competitive displacement of the bound tracer. To further gauge the robustness of these interactions, the fold response over the control (i.e., BRETtracer/BRETcontrol) was calculated. We chose a 1.5-fold response, which translates to ≥7-fold signal over noise as the minimal threshold required to score an interaction as positive.
HiBiT-GPCR DNA constructs were diluted in 10 mM Tris pH 8 to a final concentration of 0.01 μg/μL, arrayed in 96-well plates and stored at −20 °C. For transfection, HEK293 cells were suspended in Opti-MEM (without phenol red) supplemented with 2% fetal bovine serum (Seradigm) and 100 units/mL penicillin–streptomycin (Gibco) at a final concentration of 220,000 cells/mL and dispensed into white 96-well plates at 90 μL/well. Subsequent transfections and screens were carried using an Agilent Bravo Automated Liquid Handling Platform. First, the 96-well HiBiT DNA arrays were diluted 25-fold in Opti-MEM (without serum or phenol red) to a final concentration of 0.0004 μg/μL and 20 μL of the diluted DNAs were transferred into new 96-well plates. Next, promoterless carrier DNA (1 μg/μL) was diluted 25-fold (0.04 μg/μL) and then dispensed into the diluted arrays at 20 μL/well. Following brief mixing, Viafect transfection reagent (Promega) diluted 16-fold into Opti-MEM was dispensed into the plates at 40 μL/well. After mixing by pipetting, plates were incubated for 10 min on the pipetting station deck. The DNA-transfection reagent complexes were then added to plates containing cells. To facilitate the screen, 10 μL of DNA-transfection reagent complexes were added in duplicates to the top 4 and bottom 4 rows, resulting in two identical 48-well arrays per plate. Plates with transfected cells were incubated for 18–20 h at 37 °C/5% CO2. A screen of each tracer across the entire library using two different concentrations requires duplicate plates of transfected cells. Depending on the number of tracers being screened, transfections can be scaled up using the same ratios. The next day, for each tracer, four 20× screening solutions in tracer dilution buffer (Promega) were prepared: two duplicates at final concentration of 20 μM and two duplicates at a final concentration of 2 μM. […] The four resulting solutions were diluted 4-fold in Opti-MEM without serum or phenol red to generate 5× solutions (5 µM and 0.5 µM tracer +/− 100 μM competing compound). To screen the library, a BioTek MultiFlo FX liquid dispenser was used to dispense 22.5 µL of tracer solution to the top 4 rows and 22.5 µL tracer + competing compound solution to the 4 bottom rows. Plates were briefly mixed on an orbital shaker and incubated for 1.5 h at room temperature. […] Plates were briefly mixed on an orbital shaker and incubated for 15 min to allow complementation.

T1 sequence (P33032 whole entry): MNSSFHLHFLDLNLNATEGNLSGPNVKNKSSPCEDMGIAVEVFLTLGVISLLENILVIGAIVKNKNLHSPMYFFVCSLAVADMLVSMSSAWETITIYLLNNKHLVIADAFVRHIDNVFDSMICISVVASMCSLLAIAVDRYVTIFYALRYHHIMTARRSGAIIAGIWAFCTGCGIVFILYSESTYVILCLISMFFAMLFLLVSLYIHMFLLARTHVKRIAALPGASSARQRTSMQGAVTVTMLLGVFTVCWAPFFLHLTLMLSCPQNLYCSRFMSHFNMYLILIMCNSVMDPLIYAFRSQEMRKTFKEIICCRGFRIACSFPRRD

Row | Compound | NanoBRET Fold Response (MC5R, tracer 0.1μM) | NanoBRET Fold Response (MC5R, tracer 1μM) | further results
1 | Cc1nc2n(c(=O)c1CCN1CCC(c3noc4cc(F)ccc34)CC1)CCCC2OC(=O)NCCOCCOCCOCCOCCNC(=O)CCc1ccc2n1[B-](F)(F)[N+]1=C(c3ccc[nH]3)C=CC1=C2 (stereo not drawn) [Risperidone-2-NB590] | 1.02 | 1.02 | –
2 | CCOC(=O)c1cc(C#N)c(N2CCC(C(=O)NS(=O)(=O)Cc3ccccc3/C=C/C(=O)NCCNC(=O)CCc3ccc4n3[B-](F)(F)[N+]3=C(c5ccc[nH]5)C=CC3=C4)CC2)nc1C [AZD1283-1-NB590] | – | – | NanoBRET Fold Response (MC5R, 1μM): 0.99
3 | Cc1cc2c(s1)Nc1ccccc1N=C2N1CCN(CCCNC(=O)CCOCCOCCOCCOCCNC(=O)CCc2ccc3n2[B-](F)(F)[N+]2=C(c4ccc[nH]4)C=CC2=C3)CC1 [Olanzapine-a-2-NB590] | 0.99 | 1.04 | –
4 | COc1ccccc1N1CCN(CCCCN2C(=O)c3ccc(CNC(=O)CCOCCNC(=O)c4ccc(CNC(=O)CCc5ccc6n5[B-](F)(F)[N+]5=C(c7ccc[nH]7)C=CC5=C6)cc4)cc3C2=O)CC1 [NAN-190-3-NB590] | 0.97 | 0.96 | –
5 | CC(C)N(CC[C@H](c1ccccc1)c1cc(CCNC(=O)CCOCCOCCOCCOCCNC(=O)CCc2ccc3n2[B-](F)(F)[N+]2=C(c4ccc[nH]4)C=CC2=C3)ccc1O)C(C)C [Tolterodine-2-NB590] | – | 0.91 | –
6 | CN(C)CCC=C1c2ccccc2CCc2ccc(C(=O)NCCNC(=O)CCOCCOCCOCCOCCNC(=O)CCc3ccc4n3[B-](F)(F)[N+]3=C(c5ccc[nH]5)C=CC3=C4)cc21 [Amitriptyline-b-2-NB590] | – | – | NanoBRET Fold Response (tracer at 0.1μM): 1.02; NanoBRET Fold Response (tracer at 1μM): 1.00
7 | O=C(CCOCCOCCOCCOCCNC(=O)CCc1ccc2n1[B-](F)(F)[N+]1=C(c3ccc[nH]3)C=CC1=C2)NCCCN1CCN(C2=Nc3ccccc3Oc3ccc(Cl)cc32)CC1 [Loxapine-a-2-NB590] | 1.04 | – | –
8 | O=C(CCc1ccc2n1[B-](F)(F)[N+]1=C(c3ccc[nH]3)C=CC1=C2)NCCOCCOCCNC(=O)OCCOCCN1CCN(C2=Nc3ccccc3Sc3ccccc32)CC1 [Quetiapine-a-2-NB590] | 0.97 | 1.09 | –
9 | COc1ccccc1N1CCN(CCCCN2C(=O)c3ccc(CNC(=O)CCOCCOCCOCCOCCNC(=O)CCc4ccc5n4[B-](F)(F)[N+]4=C(c6ccc[nH]6)C=CC4=C5)cc3C2=O)CC1 [NAN-190-2-NB590] | 0.98 | 1.01 | –
10 | CN1CCN(C2=Nc3cc(Cl)ccc3N(CC(=O)NCCOCCOCCOCCOCCNC(=O)CCc3ccc4n3[B-](F)(F)[N+]3=C(c5ccc[nH]5)C=CC3=C4)c3ccccc32)CC1 [Clozapine-c-2-NB590] | – | – | NanoBRET Fold Response (MC5R, 0.1μM tracer): 1.01; NanoBRET Fold Response (MC5R, 1μM tracer): 1.06
11 | COc1ccc2[nH]c(-c3ccc(CNC(=O)CCOCCOCCOCCOCCNC(=O)CCc4ccc5n4[B-](F)(F)[N+]4=C(c6ccc[nH]6)C=CC4=C5)cc3)c(CCNC(C)=O)c2n1 [AzomelatoninICO9-2-NB590] | – | – | NanoBRET Fold Response (0.1μM tracer): 0.94; NanoBRET Fold Response (1μM tracer): 0.97
12 | O=C(CCOCCOCCOCCOCCNC(=O)CCc1ccc2n1[B-](F)(F)[N+]1=C(c3ccc[nH]3)C=CC1=C2)NCCCN1CCN(C2=Nc3cc(Cl)ccc3Nc3ccccc32)CC1 [Clozapine-a-2-NB590] | – | – | NanoBRET Fold Response (MC5R, 0.1μM tracer): 1.04
13 | CCCn1c(=O)c2[nH]c(-c3ccc(OCC(=O)NCCNC(=O)CCOCCNC(=O)c4ccc(CNC(=O)CCc5ccc6n5[B-](F)(F)[N+]5=C(c7ccc[nH]7)C=CC5=C6)cc4)cc3)nc2n(CCC)c1=O [XAC-3-NB590] | 1.02 | 0.98 | –
14 | O=C(CCc1ccc2n1[B-](F)(F)[N+]1=C(c3ccc[nH]3)C=CC1=C2)NCc1ccc(C(=O)NCCOCCOCCNCC(O)COc2cccc3ccccc23)cc1 (stereo not drawn) [Propranolol-3-NB590] | – | – | NanoBRET Fold Response (MC5R, 0.1μM): 1.00; NanoBRET Fold Response (MC5R, 1μM): 0.98
15 | O=C(CCc1ccc2n1[B-](F)(F)[N+]1=C(c3ccc[nH]3)C=CC1=C2)NCc1ccc(C(=O)NCCOCCC(=O)N[C@@H]2CC[C@@]3(O)[C@H]4Cc5ccc(O)c6c5[C@@]3(CCN4CC3CC3)[C@H]2O6)cc1 [Naltrexone-3-NB590] | – | 1.04 | –
16 | N#CN=C(NCCCOc1cccc(CN2CCCCC2)c1)NCCNC(=O)CCOCCOCCOCCOCCNC(=O)CCc1ccc2n1[B-](F)(F)[N+]1=C(c3ccc[nH]3)C=CC1=C2 [Aminopotentidine-2-NB590] | 1.01 | 0.94 | –
17 | COc1ccc2c(n1)c(CCNC(C)=O)cn2CCNC(=O)CCc1ccc2n1[B-](F)(F)[N+]1=C(c3ccc[nH]3)C=CC1=C2 [Azamelatonin-1-NB590] | – | – | NanoBRET Fold Response (0.1μM tracer): 1.01; NanoBRET Fold Response (1μM tracer): 1.04
18 | CC(C)N(CC[C@H](c1ccccc1)c1cc(CCNC(=O)c2ccc(CNC(=O)CCc3ccc4n3[B-](F)(F)[N+]3=C(c5ccc[nH]5)C=CC3=C4)cc2)ccc1O)C(C)C [Tolterodine-BZ-NB590] | 1.02 | 1.02 | –
19 | CN1CCN(C2=Nc3cc(Cl)ccc3Nc3ccc(CNC(=O)CCOCCOCCOCCOCCNC(=O)CCc4ccc5n4[B-](F)(F)[N+]4=C(c6ccc[nH]6)C=CC4=C5)cc32)CC1 [Clozapine-b-2-NB590] | – | – | NanoBRET Fold Response (MC5R, 0.1μM tracer): 1.05; NanoBRET Fold Response (MC5R, 1μM tracer): 1.04
